# Experimental data: US11766434B2, “Pyrimidinone derivatives as CDC7 inhibitors” (Cancer Research Technology Limited, priority 2016, dated 2023)
# Molecular target: Cdc7 (Homo sapiens, UniProt O00311)
# Test: Cdc7 cell pharmacodynamics assay Method 1: pS53MCM2 levels in HCT116 cells
# Assay type: cell-based
# Parameters: endogenous in cells
# Settings: 6 hours treatment, read-out: Biomarker Method 1 (pEC50) (converted)
# Description: This protocol describes a method to investigate the inhibition of Cdc7 activity of compounds by measuring pS53MCM2 levels in cells after treatment.
# • HCT116 cells (wild type P53 positive) • McCoys 5A media (PAA Laboratories Ltd, E15-022) • 10% FCS (Sera Laboratories International Ltd, EU000F Batch: 108005) • 100× L-Glutamine (Invitrogen, 25030-024) • D-PBS without CaCl2 and MgCl2 (Invitrogen, ref. 14190-094) • Trypsin/EDTA (Invitrogen 25300-054) • 2% BSA in PBS • Cell Extraction Buffer (Invitrogen FNN0011) • Protease inhibitor cocktail (Sigma P-2714) • PMSF 0.3M stock in DMSO (Sigma P7626) • Antibody—rabbit pMCM2 Ser53 (Bethyl #A300-756A) • Antibody—goat MCM2 (Bethyl #A300-122A) • Antibody—goat Anti Rabbit IgG HRP (Perbio Science UK Ltd 31462) • 1×PBS • FACE Wash buffer (0.02% Triton X100 in 1×PBS) • SuperSignal ELISA Pico Chemiluminescent Substrate (Perbio Science UK Ltd 37070) Method • 72 hours prior to the start of the experiment plate 1×10^6 HCT116 cells in a 150 cm^2 flask in complete McCoys 5A media (+10% FCS+1× L-glutamine). • Plate 20,000 HCT116 cells per well in standard TC treated 96 well plate in 100 μL complete McCoys 5A media. • Allow cells to settle overnight in incubator set at 37° C. and 5% CO2. • Remove intermediate plate from fridge and place at 37° C. overnight to allow to equilibrate. • Cell treatment: cell assay plate 100 μL; daughter to cell transfer volume 3.33 μL; daughter volume 45 μL; mother plate to daughter volume 5 μL. • Once all cells are treated remove the cells to the incubator and incubate for 6 hours. • Dilute the capture antibody (total MCM2 #A300-122A) 1 in 250 in the required volume of PBS (5 mL per assay plate) and add 50 μL to each well of a Hybond plate excluding wells 12E to 12H. In these wells add 50 μL PBS. Seal the plate and incubate at room temperature fora minimum of 2 hours. • Defrost aliquot of Invitrogen Cell Extraction Buffer (FNN0011) on ice and supplement with appropriate volume of both Sigma protease inhibitor cocktail (P-2714) and PMSF (final cone 1 mM from a […] in DMSO). • After the 6 hour cell treatment time tap out the media from the assay plates and place them in the −70° C. freezer for at least 5 minutes. • Remove plates from freezer and add 20 μL of ice cold complete lysis buffer on ice. Incubate cells for 30 minutes at 4° C. • Add 80 μL per well 2% BSA. • Transfer 80 μL from the lysis plate to the same wells in the capture/ELISA plate. Cover with plate seal and incubate plates overnight at 4° C. • Wash plates with PBS, remove any residual remaining liquid and add 50 μL per well of pMCM2 Ser53 antibody (#A300-756A) diluted 1 in 100 in 2% BSA. Cover plate and incubate at room temperature for 2 hours with gentle shaking. • Wash plates with PBS, remove any residual remaining liquid and Incubate with 50 μL goat anti rabbit antibody (1 in 800 dilution in 2% BSA) for 1 hour at room temperature. • Wash plates with PBS, remove any residual remaining liquid and add 50 μL mixed SuperSignal Pico substrate. • Incubate each plate for 5 minutes at room temperature shielding the plates from direct light (with a cover plate). Read plates with the luminescent detection. Method 2
# Cdc7, sequence (O00311 whole entry): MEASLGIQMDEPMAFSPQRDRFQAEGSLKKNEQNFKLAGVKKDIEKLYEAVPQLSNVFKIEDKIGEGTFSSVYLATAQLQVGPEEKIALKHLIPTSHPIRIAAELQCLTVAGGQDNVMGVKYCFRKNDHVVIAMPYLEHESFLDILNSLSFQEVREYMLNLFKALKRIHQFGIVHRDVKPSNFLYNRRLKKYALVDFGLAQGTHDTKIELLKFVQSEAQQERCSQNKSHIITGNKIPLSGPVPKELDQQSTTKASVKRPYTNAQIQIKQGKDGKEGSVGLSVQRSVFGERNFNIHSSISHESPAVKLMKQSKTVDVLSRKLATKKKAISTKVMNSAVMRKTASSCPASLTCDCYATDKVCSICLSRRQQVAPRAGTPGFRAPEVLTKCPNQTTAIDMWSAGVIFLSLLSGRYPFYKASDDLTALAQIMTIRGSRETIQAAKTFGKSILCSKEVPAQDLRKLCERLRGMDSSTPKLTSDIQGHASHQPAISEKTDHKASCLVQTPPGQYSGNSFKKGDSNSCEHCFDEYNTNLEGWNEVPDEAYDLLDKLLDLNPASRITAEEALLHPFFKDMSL
# Cdc7, sequence (Q9UBU7 whole entry partner): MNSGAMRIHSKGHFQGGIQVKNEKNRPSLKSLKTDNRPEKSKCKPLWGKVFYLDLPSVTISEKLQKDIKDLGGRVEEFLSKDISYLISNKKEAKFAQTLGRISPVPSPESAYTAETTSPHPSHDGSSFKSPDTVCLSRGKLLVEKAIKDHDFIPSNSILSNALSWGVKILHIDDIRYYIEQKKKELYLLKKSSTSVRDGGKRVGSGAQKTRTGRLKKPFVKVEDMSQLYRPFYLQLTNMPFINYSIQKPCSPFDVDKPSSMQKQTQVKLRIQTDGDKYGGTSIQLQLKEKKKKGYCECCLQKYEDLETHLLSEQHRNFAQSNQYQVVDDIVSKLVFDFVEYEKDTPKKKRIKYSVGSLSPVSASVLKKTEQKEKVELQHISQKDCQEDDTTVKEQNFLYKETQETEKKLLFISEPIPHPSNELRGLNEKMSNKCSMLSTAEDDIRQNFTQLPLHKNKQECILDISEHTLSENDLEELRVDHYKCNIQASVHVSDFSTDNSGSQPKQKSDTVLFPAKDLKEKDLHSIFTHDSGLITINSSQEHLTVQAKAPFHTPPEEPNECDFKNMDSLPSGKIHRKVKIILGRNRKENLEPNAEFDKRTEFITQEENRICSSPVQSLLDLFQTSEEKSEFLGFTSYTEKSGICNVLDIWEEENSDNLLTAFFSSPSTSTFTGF
smiles,measurement,value
"O=c1[nH]c(-c2scnc2C(F)(F)F)nc(C2CCOCC2)c1Cl [Compound 14, 5-chloro-4-tetrahydropyran-4-yl-2-[4-(trifluoromethyl)thiazol-5-yl]-1H-pyrimidin-6-one]",EC50,0.158 µM
"O=c1[nH]c(-c2cn[nH]c2C(F)(F)F)nc(C2CCOCC2)c1Cl [Compound 17, 5-chloro-4-tetrahydropyran-4-yl-2-[5-(trifluoromethyl)-1H-pyrazol-4-yl]-1H-pyrimidin-6-one]",EC50,0.112 µM
"Cc1ncsc1-c1nc(N2CCN[C@@H](C(F)(F)F)C2)c(Cl)c(=O)[nH]1 [Compound 28, 5-chloro-2-(4-methylthiazol-5-yl)-4-[(3R)-3-(trifluoromethyl)piperazin-1-yl]-1H-pyrimidin-6-one]",EC50,0.0457 µM
"O=c1[nH]c(-c2scnc2Cl)nc(C2CCOCC2)c1Cl [Compound 4, 5-chloro-2-(4-chlorothiazol-5-yl)-4-tetrahydropyran-4-yl-1H-pyrimidin-6-one]",EC50,0.0457 µM
"Cc1ncsc1-c1nc(C2CCOCC2)c(Cl)c(=O)[nH]1 [Compound 6, 5-chloro-2-(4-methylthiazol-5-yl)-4-tetrahydropyran-4-yl-1H-pyrimidin-6-one]",EC50,0.107 µM
